Measured values reported in article PMC5736709, “Unravelling the specificity and mechanism of sialic acid recognition by the gut symbiont Ruminococcus gnavus” (Nature Communications, 2017).

Columns and labels:
RgCBM40 E126A = target: T1, RgCBM40 E126A (Mediterraneibacter gnavus (Ruminococcus gnavus), UniProt A7B557, E126A); test: ITC of sialoglycans binding to RgCBM40 mutant E126A; parameters: species or system Ruminococcus gnavus ATCC 29149; details: for Kd: ITC
T1 sequence (A7B557 50-237 E126A): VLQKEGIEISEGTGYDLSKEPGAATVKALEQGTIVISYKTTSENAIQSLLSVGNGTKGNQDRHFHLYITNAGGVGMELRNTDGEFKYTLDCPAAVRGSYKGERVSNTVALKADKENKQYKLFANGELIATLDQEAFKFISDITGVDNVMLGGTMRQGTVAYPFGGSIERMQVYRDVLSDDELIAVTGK
Method: Site directed mutagenesis of RgGH33 to introduce the D282A mutation in the active site was carried out using the QuikChange kit, following the manufacturer’s instructions, Agilent (Santa Clara, CA, USA). Site-directed mutants of RgCBM40; I95A, Y116A, E126A, R128A, R204A and double mutant R128A/R204A, were obtained from NZyTech (Lisbon, Portugal). The primers are listed in Supplementary Table 4. The integrity of the RgGH33 and RgCBM40 mutants was checked by circular dichroism (CD).
Isothermal titration calorimetry (ITC) experiments were performed using the PEAQ-ITC system (Malvern, Malvern, UK) with a cell volume of 200 µl. Prior to titration protein samples were exhaustively dialysed into PBS. The ligand was dissolved in the dialysis buffer. The cell protein concentration was 115 µM (except for mutant I95A where it was 173 µM and the wild-type interaction with 6′SL where it was 230 µM) and the syringe ligand concentration was 10 mM (25 mM for Neu5Ac). Controls with titrant (sugar) injected into buffer only were subtracted from the data. Analysis was performed using Malvern software, using a single-binding site model. The stoichiometry of binding sites was set to 1.0 as this was evident from the crystal structure. Quantitative and most qualitative experiments were carried out in triplicate.

RgCBM40 I95A = target: T2, RgCBM40 I95A (Mediterraneibacter gnavus (Ruminococcus gnavus), UniProt A7B557, I95A); test: STD NMR of sialoglycans with RgCBM40 I95A mutant; type: binding, Ruminococcus gnavus ATCC 29149; details: 1 mM sialoglycan, 50 μM RgCBM40 I95A
T2 sequence (A7B557 50-237 I95A): T1 sequence (A7B557 50-237 E126A)
Method: ^1H and ^13C resonance assignment for all the sugars was performed on the bases of 1D ^1H, 2D DQF-COSY, TOCSY, HSQC and NOESY experiments run on the free ligands in unbuffered D2O, pH 7.0. For STD NMR experiments, all the samples consisted of 1 mM sialoglycans and 50 μM RgCBM40 (WT or I95A mutant) in D2O buffer solution of 10 mM Tris-d11 pH 7.8 and 100 mM NaCl (ligand: protein ratio 20:1). An STD pulse sequence that included 2.5 ms and 5 ms trim pulses and a 3 ms spoil gradient was used. Saturation was achieved applying a train of 50 ms Gaussian pulses (0.40 mW) on the f2 channel, at 0.60 p.p.m. (on-resonance experiments) and 40 p.p.m. (off-resonance experiments). The broad protein signals were removed using a 40 ms spinlock (T1ρ) filter. All the experiments were recorded at ^1H frequency of 800.23 MHz on a Bruker Avance III spectrometer equipped with a 5 mm probe TXI 800 MHz H-C/N-D-05 Z BTO, at 288 K. For all the sialoglycans in the presence of RgCBM40, an STD experiment with a saturation time of 2 s and a relaxation delay of 5 s was performed, as a first test for binding. For the confirmed binders, the STD NMR experiments were carried out at different saturation times (0.5, 1, 2, 3, 4 and 5 s) with 1 K scans and relaxation delay of 5 s, in order to obtain the binding epitope mapping. […]

[1] = test system: RgCBM40 binding to LS174T MUC2; test: ELISA of RgCBM40 binding to LS174T MUC2 in competition with sugars; parameters: species or system Ruminococcus gnavus ATCC 29149; details: RgCBM40 preincubated with 1 mM free sugar overnight at 4 °C; immobilised LS174T MUC2; A450
Method: RgCBM40 binding to purified mucins was tested by ELISA. Mucins (100 μl of 10 μg ml^−1) were immobilised onto a high binding 96 well plate (Greiner, Stonehouse, UK) overnight at 4 °C. All subsequent steps were carried out for 1 h at room temperature. The plates were blocked with 3% (w/v) BSA, incubated with RgCBM40 (500 μg ml^−1), followed by an incubation with 1:5000 anti-RgNanH (raised in rabbit, Biogenes) then with 1:5000 anti-rabbit secondary antibody (raised in donkey) conjugated to peroxidase (GE Healthcare). Between each step, the plate was washed with 3 × 300 μl of PBS containing 0.05% (v/v) Tween 20 (PBST). Prior to detection, an additional wash step and 30 s incubation with PBST was carried out. Binding was detected using tetramethylbenzidine (TMB) visualisation solution (Biolegend, San Diego, CA, USA) which was incubated for 15 min. The reaction was stopped by addition of 2 M H2SO4 and absorbance measured at 450 nm using a plate-reader (Bench Marl Plus, Biorad), subtracting background readings at 570 nm. Negative controls including no RgCBM40 (subtracted from A450 value), no primary or no secondary antibody were carried out in parallel. For comparison between plates, values were normalised to the reading for LS174T MUC2 which was arbitrarily set at 100%. For enzymatic treatment of the mucin, LS174T MUC2 (2 mg ml^−1) was incubated with sialidases (2 µg ml^−1) overnight at 4 °C on a rotary wheel prior to immobilisation on the plate. For chemical treatment of mucin, LS174T MUC2 was incubated with 0.1 M trifluoroacetic acid (TFA) at 80 °C for 1 h, dialysed against ammonium bicarbonate (50 mM), lyophilised and redissolved in H2O. For the competition assays, RgCBM40 was incubated with 1 mM of free sugar overnight at 4 °C on a rotary wheel prior to addition to the ELISA plate as above. Experiments were carried out in triplicate.

Structure (SMILES) | Binding by ITC (in words) (RgCBM40 E126A) | Kd (RgCBM40 E126A) [mM] | Binding to I95A by STD-NMR (RgCBM40 I95A) | Effect of free sugar on adherence of RgCBM40 to MUC2 [1]
CC(=O)N[C@H]1[C@H]([C@H](O)[C@H](O)CO)O[C@@](O[C@H]2[C@@H](O)[C@@H](CO)O[C@@H](O[C@H]3[C@H](O)[C@@H](O)C(O)O[C@@H]3CO)[C@@H]2O)(C(=O)O)C[C@@H]1O (stereo partly drawn) [3′SL, α2-3 sialyllactose] | abolished | > 25 | confirmed | significantly decreased
CC(=O)N[C@H]1[C@H]([C@H](O)[C@H](O)CO)O[C@@](OC[C@H]2O[C@@H](O[C@H]3[C@H](O)[C@@H](O)C(O)O[C@@H]3CO)[C@H](O)[C@@H](O)[C@H]2O)(C(=O)O)C[C@@H]1O (stereo partly drawn) [6′SL, α2,6-sialyllactose] | abolished | > 25 | confirmed | significantly decreased
